From patent US12187758B2 (ROME Therapeutics, Inc., priority 2022, dated 2025)

Key:
Assay type in all cases: cell-based
THP1-Dual KO-TREX1 cells = assay: THP1 TREX1 KO inhibition assay (type 1 interferon response); settings: Homo sapiens, 144 h, type 1 interferon (QUANTI-LUC), 1 μM 5-aza-2′-deoxycytidine, six days
Method: Exemplary compounds were tested for their ability to alter the type 1 interferon response in THP1 Dual TREX1 KG cells treated with 5-aza-2′-deoxycytidine. Assay procedures and results are described below.
THP1 Dual TREX1 KG cells were purchased from Invivogen. The THP1-Dual™ KO-TREX1 cells were cultured in RPMI 1640, 10% heat-inactivated fetal bovine serum, 25 mM HEPES, 10 μg/mL blasticidin, and 100 μg/mL zeocin. THP1-Dual™ KO-TREX1 cells were treated with a dose titration of a test compound alone or in the presence of 1 μM 5-aza-2′-deoxycytidine (Sigma-Aldrich, cat #189825). Type 1 Interferon and cell viability were assessed after six days of treatment.
Stock solution of the test compound was prepared in DMSO followed by a three-fold dilution in DMSO. Additional 50× dilution was prepared in cell culture media for each dilution. 10 μL of diluted test compound was then added to a 96-well plate.
THP1-Dual™ KO-TREX1 cells were treated with either 1×PBS or 1 μM 5-aza-2′-deoxycytidine. […] of the THP1-Dual™ KO-TREX1 cells from either treatment were added to each well of the 96-well plate containing the test compound titration at 50,000 cells/well. Cells were incubated at 37° C., 5% CO2 in a humidified incubator for six days. Cells treated with 1 μM 5-aza-2′-deoxycytidine were added at the same density as above and incubated at 37° C., 5% CO2 in a humidified incubator for six days. On day six, 25 μL of cell supernatant was transferred to a 96-well white-walled plate, followed by addition to each well of 50 μL of QUANTI-LUC solution containing stabilizer. Luminescence was detected on a plate reader according to the manufacturer's instructions.
The remaining cells were assessed for cell viability by adding 25 μL of CellTiter-Glo (Promega, G9683) solution to each well, and being placed on a shaker for 10 minutes at room temperature. Luminescence was detected on a plate reader, according to the manufacturer's instructions.
In the tables “A” represents values≤0.050 μM; “B” represents values from >0.050 μM to ≤0.100 μM; “C” represents values from >0.100 μM to ≤0.250 μM; “D” represents values from >0.250 μM to ≤1 μM; “E” represents values>1 μM; and “NT”=not tested: […]

[1] = tested on: SDH-A (succinate dehydrogenase-A); assay: Mitochondria toxicity assay with PC3 cells, in-cell ELISA SDH-A; settings: 5 days treatment
Method: (§1) Exemplary compounds were tested for inhibition of expression of mitochondria DNA encoded proteins COX-1 […]. SDH-A (succinate dehydrogenase-A) is a control mitochondria protein encoded by nuclear DNA. Reduction in COX-1 expression indicates off target inhibition of mitochondria DNA synthesis which leads to mitochondrial toxicity. Assay procedures and results are described below.
(§2) PC3 cells were purchased from ATCC and cultured in F-12 Kaighn's modified medium (Hyclone), 10% heat-inactivated fetal bovine serum (Invitrogen), 1% Penicillin-Streptomycin (Invitrogen). PC3 cells were treated with a dose titration of a test compound on 96 well plates for 5 days at 37° C., 5% CO2 in a humidified incubator. The treatment plates are duplicated, one for in-cell ELISA for mitochondria proteins and one for cytotoxicity.
(§3) In-cell ELISA was performed to measure mitochondrial proteins using MitoBiogenesis In-Cell ELISA kit (Abcam) per manufacturer's instruction. The medium was aspirated from the compound treated cells, 100 μl per well of 4% paraformaldehyde (Solarbio) was added and cells were incubated at room temperature for 20 minutes. The cells were washed three times with PBS. 100 μl of 0.5% acetic acid was added per cell, and the cells were incubate at room temperature for 5 minutes. Cells were washed once with PBS. 100 μl per well of Permeabilization Buffer was added, and the cells incubate at room temperature for 30 minutes. The permeabilization buffer was removed and 200 μl per well 2× Blocking Buffer was added and the cells were incubated at room temperature for 2 hours. After removing the Blocking Buffer 100 μl per well of primary antibody to SDH-A or COX-1 was added, and the cells were incubated at 4° C. overnight. The primary antibody solution was removed and cells were washed 3 times with the Wash Buffer. 100 μl per well of AP- and HRP-labelled secondary antibodies was added, and the cells were incubated at room temperature for 1 hour. The cells were then washed 4 times with the Wash Buffer. For SDH-A detection, 100 μl per well AP Development Solution was added, and the cells were incubated at room temperature for 10 minutes. Cells were then read on CLARTO star^plus microplate reader (BMG Labtech) for kinetic readings at 405 nm for 5 minutes. […] The cells were then read on CLARTO star^plus microplate reader (BMG Labtech) for kinetic readings at 600 nm for 15 minutes.
(§4) In the table “A” represents values<1.0 μM; “B” represents values from >1.0 μM to ≤10.0 μM; “C” represents values from >10.0 μM to ≤50.0 μM; “D” represents values from >50.0 μM to ≤100.0 μM; and “E” represents values>100.0 μM.

[2] = Mitochondria toxicity assay with PC3 cells, in-cell ELISA COX-1; settings: 5 days treatment
Method: as §1, §2, §3, §4

PC3 cells = assay: Mitochondria toxicity assay with PC3 cells, cytotoxicity (Cell Titer Glo); settings: Homo sapiens, PC-3, 120 h, 5 days treatment
Method: as §2
For the cytotoxicity assay, the medium from the cell viability plate was removed, 50 μL per well of Cell Titer Glo (Promega, G9683) was added. Then the cells incubated for 30 minutes at room temperature. Luminescence was read by Envision (PerkinElmer 2105).
as §4

| SMILES | IC50 (THP1-Dual KO-TREX1 cells) [µM] | IC50 [1] [µM] | IC50 [2] [µM] | IC50 (PC3 cells) [µM] |
| --- | --- | --- | --- | --- |
| C#C[C@]1(CO)O[C@@H](n2cc(C)c(=O)[nH]c2=O)[C@@H](F)[C@@H]1O [Compound 39, 1-((2R,3S,4R,5R)-5-ethynyl-3-fluoro-4-hydroxy-5-(hydroxymethyl)tetrahydrofuran-2-yl)-5-methylpyrimidine-2,4(1H,3H)-dione] | > 1 | > 100 | > 100 | > 100 |
| C=C[C@]1(CO)O[C@@H](n2ccc(N)nc2=O)C[C@@H]1O [Compound 43, 4-amino-1-((2R,4S,5R)-4-hydroxy-5-(hydroxymethyl)-5-vinyltetrahydrofuran-2-yl)pyrimidin-2(1H)-one] | > 1 | 1 to 10 | 1 to 10 | > 100 |
| Nc1nc2c(ncn2[C@H]2C[C@H](O)[C@](CO)(CF)O2)c(=O)[nH]1 [Compound 46, 2-amino-9-((2R,4S,5R)-5-(fluoromethyl)-4-hydroxy-5-(hydroxymethyl)tetrahydro-furan-2-yl)-1,9-dihydro-6H-purin-6-one] | > 1 | 1 to 10 | 1 to 10 | 1 to 10 |
| C=C[C@]1(CO)O[C@@H](n2ccc(N)nc2=O)[C@@H](F)[C@@H]1O [Compound 47, 4-amino-1-((2R,3S,4R,5R)-3-fluoro-4-hydroxy-5-(hydroxymethyl)-5-vinyltetrahydrofuran-2-yl)pyrimidin-2(1H)-one] | > 1 | 1 to 10 | 1 to 10 | 1 to 10 |
| CC[C@]1(COC(=O)C(C)C)O[C@@H](n2ccc(N)nc2=O)C[C@@H]1OC(=O)C(C)C [Compound 52, [(2R,3S,5R)-5-(4-amino-2-oxopyrimidin-1-yl)-2-ethyl-3-[(2-methylpropanoyl)oxy]oxolan-2-yl] methyl 2-methylpropanoate] | > 1 | > 100 | > 100 | > 100 |
| C=C[C@]1(COC(=O)C(C)C)O[C@@H](n2ccc(N)nc2=O)C[C@@H]1OC(=O)C(C)C [Compound 53, [(2R,3S,5R)-5-(4-amino-2-oxopyrimidin-1-yl)-2-ethenyl-3-[(2-methylpropanoyl)oxy]oxolan-2-yl] methyl 2-methylpropanoate] | > 1 | > 100 | > 100 | > 100 |
| CC(C)[C@]1(CO)O[C@@H](n2ccc(N)nc2=O)C[C@@H]1O [Compound 55, 4-amino-1-[(2R,4S,5R)-4-hydroxy-5-(hydroxymethyl)-5-isopropyloxolan-2-yl] pyrimidin-2-one] | > 1 | > 100 | > 100 | > 100 |
| C=CCC1(CO)O[C@@H](n2ccc(N)nc2=O)C[C@@H]1O (stereo partly drawn) [Compound 56, 1-((2R,4S)-5-allyl-4-hydroxy-5-(hydroxymethyl)tetrahydrofuran-2-yl)-4-aminopyrimidin-2(1H)-one] | > 1 | > 100 | > 100 | > 100 |
| CCC[C@]1(CO)O[C@@H](n2ccc(N)nc2=O)C[C@@H]1O [Compound 60, 4-amino-1-((2R,4S,5R)-4-hydroxy-5-(hydroxymethyl)-5-propyltetrahydrofuran-2-yl)pyrimidin-2(1H)-one] | > 1 | > 100 | > 100 | > 100 |

Further lines, with some results ahead:

| IC50 (THP1-Dual KO-TREX1 cells) [µM] | SMILES | IC50 [1] [µM] | IC50 [2] [µM] | IC50 (PC3 cells) [µM] |
| --- | --- | --- | --- | --- |
| 0.25 to 1 | C#C[C@]1(CO)O[C@@H](n2ccc(N)nc2=O)[C@@H](F)[C@@H]1O [Compound 35, 4-amino-1-((2R,3S,4R,5R)-5-ethynyl-3-fluoro-4-hydroxy-5-(hydroxymethyl)tetrahydrofuran-2-yl)pyrimidin-2(1H)-one] | > 100 | < 1 | < 1 |
| > 1 | C#C[C@]1(CO)O[C@@H](c2ccc3c(N)ncnn23)C[C@@H]1O [Compound 37, (2R,3S,5R)-5-(4-aminopyrrolo[2,1-f][1,2,4]triazin-7-yl)-2-ethyny1-2-(hydroxymethyl)tetrahydro-furan-3-ol] | 1 to 10 | 1 to 10 | 10 to 50 |
| > 1 | C#C[C@]1(CO)O[C@@H](n2cc(C)c(=O)[nH]c2=O)C[C@@H]1O [Compound 38, 1-((2R,4S,5R)-5-ethynyl-4-hydroxy-5-(hydroxymethyl)tetrahydrofuran-2-yl)-5-methylpyrimidine-2,4(1H,3H)-dione] | > 100 | > 100 | > 100 |
| > 1 | C#C[C@]1(CO)O[C@@H](n2cnc3c(N)nc(F)nc32)[C@@H](F)[C@@H]1O [Compound 42, (2R,3R,4S,5R)-5-(6-amino-2-fluoro-9H-purin-9-yl)-2-ethynyl-4-fluoro-2-(hydroxymethyl)tetrahydro-furan-3-ol] | 10 to 50 | 10 to 50 | 50 to 100 |
| > 1 | Nc1ccn([C@H]2C[C@H](O)[C@](CO)(CF)O2)c(=O)n1 [Compound 45, 4-amino-1-((2R,4S,5R)-5-(fluoromethyl)-4-hydroxy-5-(hydroxymethyl)tetrahydro-furan-2-yl)pyrimidin-2(1H)-one] | < 1 | < 1 | 1 to 10 |
| 0.25 to 1 | [N-]=[N+]=N[C@]1(CO)O[C@@H](n2ccc(N)nc2=O)[C@@H](F)[C@@H]1O [Compound 50, 4-amino-1-((2R,3S,4R,5R)-5-azido-3-fluoro-4-hydroxy-5-(hydroxymethyl)tetrahydrofuran-2-yl)pyrimidin-2(1H)-one] | < 1 | < 1 | < 1 |
| > 1 | CCCC1(CO)O[C@@H](n2ccc(N)nc2=O)C[C@@H]1O (stereo partly drawn) [Compound 57, 4-amino-1-((2R,4S,5R)-4-hydroxy-5-(hydroxymethyl)-5-propyltetrahydrofuran-2-yl)pyrimidin-2(1H)-one] | > 100 | > 100 | > 100 |
| > 1 | CC(C)C(=O)OC[C@@]1(CCl)O[C@@H](n2cc(F)c(N)nc2=O)C[C@@H]1OC(=O)C(C)C [Compound 58] | > 100 | 10 to 50 | > 100 |
| > 1 | Nc1ccn([C@H]2C[C@H](O)[C@](CO)(CC(F)(F)F)O2)c(=O)n1 [Compound 62, 4-amino-1-[(2R,4S,5R)-4-hydroxy-5-(hydroxymethyl)-5-(2,2,2-trifluoroethyl)oxolan-2-yl] pyrimidin-2-one] | 10 to 50 | 10 to 50 | 10 to 50 |
